Measured values reported in patent publication US8722052B2, “Vaccinia virus protein A46 peptide and use thereof” (priority 2008, dated 2014).

Tests used:
TLR4 = test: LPS-induced NFκB reporter assay in HEK293_TLR4 cells; type: cell-based, human; settings: peptide 5 or 25 μM added 2 or 9 hours after 10 ng/ml LPS
Description: FIGS. 20A and B are bar charts showing the effect of shortened A464 peptides with deletions of N- and C-terminal amino acids on TLR4- and TLR3-induced NFκB activation in HEK293 cells. HEK293_TLR4 (A) and HEK293_TLR3 (B) cells were seeded in 96 well plates (1.5×10^5 cells/ml) 24 hours before transfection with the plasmid DNA. Cells were transfected with 60 ng NFκB-Luciferase and 20 ng of TK-Renilla reporter genes, as in FIG. 11. A464N-2 (SEQ ID NO. 41) and A464C-3 (SEQ ID NO. 42) peptides were added to the cells at a concentration of 1, 5 or 25 μM the next day and cells were stimulated with either 10 ng/ml LPS (A) or 25 μg/ml Poly(I:C) (B) 1 hour after treatment with peptides. Cells were harvested and assayed for NFκB activation by reporter gene assay 6 hours after stimulation with the agonists. No peptides were added to the control wells (black bars). Data is representative of three experiments each performed in triplicate and is expressed as mean fold induction±s.d. relative to control levels;
FIGS. 24A and B are bar charts showing the effect of A464 on ligand-independent TLR4 signalling in HEK293 cells. HEK293_TLR4 cells were seeded in 96 well plate (1.5×10^5 cells/ml) 24 hours before transfection with NFκB-luciferase and TK-Renilla reporter gene plasmids. NFκB activation was stimulated by transfecting either 50 or 100 ng of CD4/TLR4-encoding plasmid or by stimulating with 10 ng/ml LPS. The total amount of plasmid DNA transfected into the cells was made up to 230ng by adding pcDNA. A464 (SEQ ID NO. 20) was added to the cells at a concentration of 5 or 25 μM 2 hours (A) or 9 hours (B) after the transfection or LPS-stimulation. Cells were harvested and assayed for NFκB activation by reporter gene assay 24 hours post-transfection. No peptides were added to the control wells (black bars). Data is representative of two experiments, each performed in triplicate and is expressed as mean fold induction±s.d. relative to control levels;
HEK293 cells were transfected using GeneJuice® a proprietary non-toxic transfection reagent. […]

p38 MAPK = test: LPS-induced phospho-p38 MAPK in RAW264.7 cells, immunoblot; type: cell-based, murine; settings: peptide 5 μM, 10 ng/ml LPS 5, 30 or 60 min
Description: FIGS. 28A and B are immunoblots showing the effect of A464 on LPS-induced appearance of phospho-p38 MAPK in murine RAW264.7. Cells were set up as for FIG. 24 above and 5 μM A467 (SEQ ID NO. 23) or A464 (SEQ ID NO. 20) were added to the wells 1 hour before stimulation. Cells were stimulated with 10 ng/ml LPS for a period of 5, 30 or 60 min, then harvested and lysed. Proteins were resolved by SDS-PAGE, and transferred membranes immunoblotted for phospho-p38 (A) or total p38 (B). The blots shown are representative of two experiments;
RAW264.7 cells were seeded at a density of 1×10^5 cells/ml in 6 well plates. After treatment with peptides and agonists, as described above in relation to the Figs, the medium was removed and the cells were washed once with PBS before scraping them in 100 μl lysis buffer (100 mM NaCl, 50 mM HEPES (pH 7.5), 1 mM EDTA, 0.5% NP-40, 10% Glycerol) and incubating them on ice for 40 min. Samples were spun at 15,000×g for 10min and supernatants collected and stored at −20° C. […] The protein concentration was determined by monitoring the change in the solution absorbance at 280 nm using a spectrophotometer compared to protein standards. […] Thereafter, the membranes were washed, incubated in appropriate secondary antibody and then developed using standard enhanced chemi-luminescence (ECL) reagents. […]

Sequence of TLR4 (O00206 24-839): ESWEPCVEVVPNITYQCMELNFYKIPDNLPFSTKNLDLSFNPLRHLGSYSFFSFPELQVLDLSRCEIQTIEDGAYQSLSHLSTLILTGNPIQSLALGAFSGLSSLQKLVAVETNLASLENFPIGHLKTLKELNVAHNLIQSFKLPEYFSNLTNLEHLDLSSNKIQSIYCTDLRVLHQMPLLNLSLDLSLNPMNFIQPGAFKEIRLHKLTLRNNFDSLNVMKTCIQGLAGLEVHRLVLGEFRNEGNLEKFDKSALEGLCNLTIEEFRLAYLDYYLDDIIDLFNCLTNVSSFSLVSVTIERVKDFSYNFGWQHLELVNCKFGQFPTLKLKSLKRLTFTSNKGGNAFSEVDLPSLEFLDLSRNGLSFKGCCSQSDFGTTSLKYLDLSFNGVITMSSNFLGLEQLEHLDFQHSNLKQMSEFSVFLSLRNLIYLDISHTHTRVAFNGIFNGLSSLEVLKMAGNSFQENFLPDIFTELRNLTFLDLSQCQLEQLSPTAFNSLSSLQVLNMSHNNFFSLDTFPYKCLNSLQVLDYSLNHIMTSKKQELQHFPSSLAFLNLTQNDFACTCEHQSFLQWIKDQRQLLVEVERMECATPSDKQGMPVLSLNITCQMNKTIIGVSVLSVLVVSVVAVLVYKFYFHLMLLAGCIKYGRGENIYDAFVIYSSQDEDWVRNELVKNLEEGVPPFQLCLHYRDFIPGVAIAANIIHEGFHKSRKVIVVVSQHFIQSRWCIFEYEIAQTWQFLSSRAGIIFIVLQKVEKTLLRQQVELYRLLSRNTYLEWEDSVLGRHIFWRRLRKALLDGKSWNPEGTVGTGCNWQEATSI
Sequence of TLR4 (Q9Y6Y9 17-160 partner limits assumed): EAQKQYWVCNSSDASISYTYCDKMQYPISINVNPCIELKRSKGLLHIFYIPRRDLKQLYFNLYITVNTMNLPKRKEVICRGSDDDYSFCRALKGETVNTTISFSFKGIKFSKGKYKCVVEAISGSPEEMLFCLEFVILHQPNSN

Sequence: KYSFKLILAEYRRRRRRRRR [Peptide A464]
- inhibition of LPS-induced NFκB activation (TLR4): capable of inhibiting LPS-induced NFκB activation
- inhibition of LPS-induced p38 phosphorylation (p38 MAPK): very potent inhibition of LPS-induced p38 phosphorylation at all the time points
